Numbered stars: 1 amine (or outer) side, 2 acyl side, 3 side chain; on linkers, the order of the positions; unused ones are H or OH. Bridge positions count the residues as written; N and C are the ends. Square brackets hold non-standard residues; d marks the D form. Peptide text beside a SMILES is read from it. I, II: the chains in the order shown. 2Nal = N[C@@H](Cc1ccc2ccccc2c1)C(=O)O; Diglycolyl = O=C(COCC(=O)[*:2])[*:1]; NMeR = CN[C@@H](CCCNC(=N)N)C(=O)O; hPhe = N[C@@H](CCc1ccccc1)C(=O)O; Tic = O=C(O)[C@@H]1Cc2ccccc2CN1; NMeK = CN[C@@H](CCCCN)C(=O)O; Pen = CC(C)(S)[C@H](N)C(=O)O; dNMeK = CN[C@H](CCCCN)C(=O)O; Dab = NCC[C@H](N)C(=O)O; Dap = NC[C@H](N)C(=O)O
Columns and labels:
α4β7 = α4β7 (Homo sapiens, UniProt P13612+P26010); experiment: α4β7-MAdCAM Cell Adhesion Assay (RPMI 8866 human cells); format: cell-based; parameters: host or cells: RPMI 8866 human B lymphoblastoid cells; details: Table 3-B, Potency (α4β7); range classes; read-out: α4β7 cell (Hu) IC50
Method in brief: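 Adhesion read-out: MTT absorbance at 570 nm minus no-cell wells, after three washes. Plates coated with rh MAdCAM-1/Fc received peptide dilutions plus 200,000 RPMI 8866 cells in Mn2+ (1 mM)-supplemented DMEM, 0.1% BSA, HEPES pH 7, incubated 30-45 min, 37 °C.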

[1] = Simulated Intestinal Fluid (SIF) Stability Assay; format: in vitro ADME, porcine; details: pig, simulated intestinal fluid (SIF) with 1% porcine pancreatin, pH 6.5, Table 3-B; > means experiment was stopped at that time and half life was not reached; read-out: Stabilty SIF t1/2
Protocol: Studies were carried out in simulated intestinal fluid (SIF) to evaluate intestinal stability of the peptide molecules of the instant invention. To prepare the SIF reagent, blank FASSIF was prepared by dissolving 0.348 g NaOH, 3.954 g sodium phosphate monobasic monohydrate and 6.186 g NaCl in a final volume of 1 liter water (final pH=6.5). To this solution, 24 g porcine pancreatin (Sigma catalog P7545) was added and stirred for 30 minutes (final pancreatin concentration is 2.4%). The solution was filtered through a cheese cloth and a No. 1 Whatman filter, and 10 ml aliquots were stored at −70° C. To run the reaction, a 10 ml aliquot was thawed at 37° C., and 125 ul aliquots were removed and mixed with an equal volume of blank FASSIF. The peptide stock solution (10 mM in 100% DMSO) was diluted 75-fold in blank FASSIF. A 50 μl aliquot of the diluted peptide was combined with 125 μl pancreatin (2.4%) and 125 μl blank FASSIF to yield final concentrations of 1% pancreatin and 22 μM peptide. The reactions were incubated at 37° C., and at various time points 50 μl aliquots were removed and added to 200 μl of quench solution containing 50% acetonitrile, 50% methanol, 5% formic acid, and 1 μg/ml internal standard. The quenched samples were centrifuged at 10,000 rpm for 10 minutes, and the supernatants were analyzed by LCMS/MS. The percent remaining at each time point was calculated based on the peak area response ratio of test to compound to internal standard. Half-lives were calculated by fitting to a first-order exponential decay equation using GraphPad.

Chain of α4β7 (P13612 34-1032): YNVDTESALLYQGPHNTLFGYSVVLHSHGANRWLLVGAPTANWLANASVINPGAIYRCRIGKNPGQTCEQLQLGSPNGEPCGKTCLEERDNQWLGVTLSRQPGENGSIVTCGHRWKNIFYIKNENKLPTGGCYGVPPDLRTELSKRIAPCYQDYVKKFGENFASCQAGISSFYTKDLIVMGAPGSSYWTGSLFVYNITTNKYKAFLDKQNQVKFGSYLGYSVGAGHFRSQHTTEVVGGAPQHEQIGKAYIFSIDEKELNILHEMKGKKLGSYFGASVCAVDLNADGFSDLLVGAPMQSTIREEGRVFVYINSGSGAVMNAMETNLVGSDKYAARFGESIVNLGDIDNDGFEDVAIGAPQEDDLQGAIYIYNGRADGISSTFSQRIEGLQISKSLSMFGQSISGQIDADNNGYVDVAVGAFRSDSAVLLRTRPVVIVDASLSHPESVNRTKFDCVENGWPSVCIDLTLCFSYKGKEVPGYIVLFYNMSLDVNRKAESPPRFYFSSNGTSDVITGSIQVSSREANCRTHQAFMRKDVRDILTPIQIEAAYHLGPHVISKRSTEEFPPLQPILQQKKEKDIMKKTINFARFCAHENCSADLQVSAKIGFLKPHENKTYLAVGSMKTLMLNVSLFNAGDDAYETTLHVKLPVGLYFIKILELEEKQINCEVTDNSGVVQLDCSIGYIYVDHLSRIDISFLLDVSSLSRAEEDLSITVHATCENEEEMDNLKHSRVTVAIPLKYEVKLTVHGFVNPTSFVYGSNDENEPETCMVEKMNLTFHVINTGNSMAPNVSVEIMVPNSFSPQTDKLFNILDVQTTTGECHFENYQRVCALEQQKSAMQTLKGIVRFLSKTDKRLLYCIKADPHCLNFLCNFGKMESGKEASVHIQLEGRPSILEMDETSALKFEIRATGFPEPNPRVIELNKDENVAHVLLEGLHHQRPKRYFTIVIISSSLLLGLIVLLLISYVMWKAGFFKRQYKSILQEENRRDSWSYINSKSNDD
Chain of α4β7 (P26010 20-798): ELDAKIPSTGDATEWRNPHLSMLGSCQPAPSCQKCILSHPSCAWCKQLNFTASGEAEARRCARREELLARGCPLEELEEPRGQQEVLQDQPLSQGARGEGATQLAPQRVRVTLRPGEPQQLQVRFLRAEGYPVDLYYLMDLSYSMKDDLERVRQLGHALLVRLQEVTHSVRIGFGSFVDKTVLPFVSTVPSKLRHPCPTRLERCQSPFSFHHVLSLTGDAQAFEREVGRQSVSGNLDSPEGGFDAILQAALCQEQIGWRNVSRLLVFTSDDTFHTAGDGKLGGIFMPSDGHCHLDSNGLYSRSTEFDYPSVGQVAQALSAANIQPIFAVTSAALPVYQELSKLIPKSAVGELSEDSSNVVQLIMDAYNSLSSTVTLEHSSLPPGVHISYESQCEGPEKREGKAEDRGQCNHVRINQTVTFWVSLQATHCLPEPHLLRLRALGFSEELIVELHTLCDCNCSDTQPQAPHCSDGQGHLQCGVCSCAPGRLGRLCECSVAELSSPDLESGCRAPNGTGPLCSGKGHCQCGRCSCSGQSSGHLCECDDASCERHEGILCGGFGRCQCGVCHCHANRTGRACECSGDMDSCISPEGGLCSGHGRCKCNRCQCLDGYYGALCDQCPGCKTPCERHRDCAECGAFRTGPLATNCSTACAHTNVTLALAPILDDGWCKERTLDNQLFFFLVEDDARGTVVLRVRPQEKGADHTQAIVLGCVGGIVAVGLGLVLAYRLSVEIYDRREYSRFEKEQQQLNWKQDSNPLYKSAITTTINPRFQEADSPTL

Row | Compound | IC50 (α4β7) [nM] | half-life at 22 μM [1] [h]
1 | CC(=O)N[C@H](CCCCN)C(=O)N[C@H]1CSSC[C@@H](C(=O)N[C@@H](Cc2c[nH]c3ccccc23)C(=O)N[C@H](CCCCNC(=O)COCC(=O)NCCCC[C@@H](NC(=O)[C@H](Cc2c[nH]c3ccccc23)NC(=O)[C@@H]2CSSC[C@H](NC(=O)[C@@H](CCCCN)NC(C)=O)C(=O)N(C)[C@@H](CCCNC(=N)N)C(=O)N[C@@H](CO)C(=O)N[C@@H](CC(=O)O)C(=O)N[C@@H]([C@@H](C)O)C(=O)N[C@@H](CC(C)C)C(=O)N2)C(N)=O)C(N)=O)NC(=O)[C@H](CC(C)C)NC(=O)[C@H]([C@@H](C)O)NC(=O)[C@H](CC(=O)O)NC(=O)[C@H](CO)NC(=O)[C@H](CCCNC(=N)N)N(C)C1=O [compound 4] (I: Ac-[dK]C[NMeR]SDTLCW[dK]-NH2 / II: Ac-[dK]C[NMeR]SDTLCW[dK]-NH2; disulfide I:2-I:8, II:2-II:8; linker I:10-II:10 via Diglycolyl) | 10 to 25 | < 0.333
2 | CC(=O)N[C@@H]1C(=O)N(C)[C@@H](CCCNC(=N)N)C(=O)N[C@@H](CO)C(=O)N[C@@H](CC(=O)O)C(=O)N[C@@H]([C@@H](C)O)C(=O)N[C@@H](CC(C)C)C(=O)N[C@H](C(=O)N[C@@H](Cc2ccc3ccccc3c2)C(=O)N[C@H](Cc2ccc(O)cc2)C(=O)N[C@H](CCCCNC(=O)COCC(=O)NCCCC[C@@H](NC(=O)[C@@H](Cc2ccc(O)cc2)NC(=O)[C@H](Cc2ccc3ccccc3c2)NC(=O)[C@H]2NC(=O)[C@H](CC(C)C)NC(=O)[C@H]([C@@H](C)O)NC(=O)[C@H](CC(=O)O)NC(=O)[C@H](CO)NC(=O)[C@H](CCCNC(=N)N)N(C)C(=O)[C@@H](NC(C)=O)C(C)(C)SSC2(C)C)C(N)=O)C(N)=O)C(C)(C)SSC1(C)C [compound 27] (I: Ac-[Pen][NMeR]SDTL[Pen][2Nal][dY][dK]-NH2 / II: Ac-[Pen][NMeR]SDTL[Pen][2Nal][dY][dK]-NH2; disulfide I:1-I:7, II:1-II:7; linker I:10-II:10 via Diglycolyl) | 25 to 50 | > 3
3 | CC(=O)N[C@@H]1C(=O)N(C)[C@@H](CCCNC(=N)N)C(=O)N[C@@H](CO)C(=O)N[C@@H](CC(=O)O)C(=O)N[C@@H]([C@@H](C)O)C(=O)N[C@@H](CC(C)C)C(=O)N[C@H](C(=O)N[C@@H](Cc2ccc3ccccc3c2)C(=O)N[C@H](CCC(=O)O)C(=O)N(C)[C@H](CCCCNC(=O)COCC(=O)NCCCC[C@H](C(N)=O)N(C)C(=O)[C@@H](CCC(=O)O)NC(=O)[C@H](Cc2ccc3ccccc3c2)NC(=O)[C@H]2NC(=O)[C@H](CC(C)C)NC(=O)[C@H]([C@@H](C)O)NC(=O)[C@H](CC(=O)O)NC(=O)[C@H](CO)NC(=O)[C@H](CCCNC(=N)N)N(C)C(=O)[C@@H](NC(C)=O)C(C)(C)SSC2(C)C)C(N)=O)C(C)(C)SSC1(C)C [compound 39] (I: Ac-[Pen][NMeR]SDTL[Pen][2Nal][dE][dNMeK]-NH2 / II: Ac-[Pen][NMeR]SDTL[Pen][2Nal][dE][dNMeK]-NH2; disulfide I:1-I:7, II:1-II:7; linker I:10-II:10 via Diglycolyl) | 10 to 25 | > 3
4 | CC(=O)N[C@@H]1C(=O)N(C)[C@@H](CCCNC(=N)N)C(=O)N[C@@H](CO)C(=O)N[C@@H](CC(=O)O)C(=O)N[C@@H]([C@@H](C)O)C(=O)N[C@@H](CC(C)C)C(=O)N[C@H](C(=O)N[C@@H](CCc2ccccc2)C(=O)N[C@@H](CCC(=O)O)C(=O)N[C@H](CCCCNC(=O)COCC(=O)NCCCC[C@@H](NC(=O)[C@H](CCC(=O)O)NC(=O)[C@H](CCc2ccccc2)NC(=O)[C@H]2NC(=O)[C@H](CC(C)C)NC(=O)[C@H]([C@@H](C)O)NC(=O)[C@H](CC(=O)O)NC(=O)[C@H](CO)NC(=O)[C@H](CCCNC(=N)N)N(C)C(=O)[C@@H](NC(C)=O)C(C)(C)SSC2(C)C)C(N)=O)C(N)=O)C(C)(C)SSC1(C)C [compound 45] (I: Ac-[Pen][NMeR]SDTL[Pen][hPhe]E[dK]-NH2 / II: Ac-[Pen][NMeR]SDTL[Pen][hPhe]E[dK]-NH2; disulfide I:1-I:7, II:1-II:7; linker I:10-II:10 via Diglycolyl) | 25 to 50 | 0.617
5 | CC(=O)N[C@@H]1C(=O)N(C)[C@@H](CCCNC(=N)N)C(=O)N[C@@H](CO)C(=O)N[C@@H](CC(=O)O)C(=O)N[C@@H]([C@@H](C)O)C(=O)N[C@@H](CC(C)C)C(=O)N[C@H](C(=O)N[C@@H](Cc2c[nH]c3ccccc23)C(=O)N[C@H](CCC(=O)O)C(=O)N[C@@H](CN)C(N)=O)C(C)(C)SSC1(C)C [compound 55] (Ac-[Pen][NMeR]SDTL[Pen]W[dE][Dap]-NH2; disulfide 1-7) | 100 to 500 | > 3
6 | CC(=O)N[C@@H]1C(=O)N(C)[C@@H](CCCNC(=N)N)C(=O)N[C@@H](CO)C(=O)N[C@@H](CC(=O)O)C(=O)N[C@@H]([C@@H](C)O)C(=O)N[C@@H](CC(C)C)C(=O)N[C@H](C(=O)N[C@@H](Cc2c[nH]c3ccccc23)C(=O)N[C@H](CCC(=O)O)C(=O)N[C@@H](CCN)C(N)=O)C(C)(C)SSC1(C)C [compound 56] (Ac-[Pen][NMeR]SDTL[Pen]W[dE][Dab]-NH2; disulfide 1-7) | 500 to 1000 | > 3
7 | CC(=O)N[C@@H]1C(=O)N(C)[C@@H](CCCNC(=N)N)C(=O)N[C@@H](CO)C(=O)N[C@@H](CC(=O)O)C(=O)N[C@@H]([C@@H](C)O)C(=O)N[C@@H](CC(C)C)C(=O)N[C@H](C(=O)N[C@@H](Cc2c[nH]c3ccccc23)C(=O)N(C)[C@@H](CCCCNC(=O)COCC(=O)NCCCC[C@@H](C(N)=O)N(C)C(=O)[C@H](Cc2c[nH]c3ccccc23)NC(=O)[C@H]2NC(=O)[C@H](CC(C)C)NC(=O)[C@H]([C@@H](C)O)NC(=O)[C@H](CC(=O)O)NC(=O)[C@H](CO)NC(=O)[C@H](CCCNC(=N)N)N(C)C(=O)[C@@H](NC(C)=O)C(C)(C)SSC2(C)C)C(N)=O)C(C)(C)SSC1(C)C [compound 77] (I: Ac-[Pen][NMeR]SDTL[Pen]W[NMeK]-NH2 / II: Ac-[Pen][NMeR]SDTL[Pen]W[NMeK]-NH2; disulfide I:1-I:7, II:1-II:7; linker I:9-II:9 via Diglycolyl) | 100 to 500 | > 3
8 | CC(=O)N[C@@H]1C(=O)N(C)[C@@H](CCCNC(=N)N)C(=O)N[C@@H](CO)C(=O)N[C@@H](CC(=O)O)C(=O)N[C@@H]([C@@H](C)O)C(=O)N[C@@H](CC(C)C)C(=O)N[C@H](C(=O)N2Cc3ccccc3C[C@H]2C(=O)N[C@H](CCC(=O)O)C(=O)N[C@H](CCCCNC(=O)COCC(=O)NCCCC[C@@H](NC(=O)[C@@H](CCC(=O)O)NC(=O)[C@@H]2Cc3ccccc3CN2C(=O)[C@H]2NC(=O)[C@H](CC(C)C)NC(=O)[C@H]([C@@H](C)O)NC(=O)[C@H](CC(=O)O)NC(=O)[C@H](CO)NC(=O)[C@H](CCCNC(=N)N)N(C)C(=O)[C@@H](NC(C)=O)C(C)(C)SSC2(C)C)C(N)=O)C(N)=O)C(C)(C)SSC1(C)C [compound 80] (I: Ac-[Pen][NMeR]SDTL[Pen][Tic][dE][dK]-NH2 / II: Ac-[Pen][NMeR]SDTL[Pen][Tic][dE][dK]-NH2; disulfide I:1-I:7, II:1-II:7; linker I:10-II:10 via Diglycolyl) | 50 to 100 | > 3

— patent US9809623B2, “α4β7 peptide monomer and dimer antagonists” (Protagonist Therapeutics, Inc., priority 2014, dated 2017)
